Data set [1] addresses Herpes simplex virus thymidine kinase (HSV-tk) (Human herpesvirus 1, UniProt P0DTH5). Conditions: cited from earlier work.
A further data set deals with HeLa 5′tk cells. In words: GCV-mediated cell killing of HSV-tk expressing HeLa 5′tk cells. Format: cell-based. The source says: The Hela cell line used in these experiments was modified with a bicistronic reporter gene that confers hygromycin B resistance and GCV […]. The bicistronic reporter gene pHyg-5′tk was constructed with the SV40 promoter driving the expression of hygromycin B phosphotransferase and the 5′ untranslated region of HCV (nucleotides (nt) 38-341) upstream of HSV thymidine kinase (HSV-tk, see FIG. 1). The 5′ nontranslated region of hepatitis C virus (HCV) functions as an internal ribosome entry site (IRES) and is essential for translation of HCV proteins. Transcription of the 5′ nontranslated region allows for IRES-mediated translation of HSV-tk, which converts GCV to the monophosphate which is further metabolized to the triphosphate a cytotoxic analog of GTP. […]
Translation of HSV-tk-mediated by HCV 5′UTR (cap-independent, HCV nucleotides 38-341) was confirmed by Western blotting analysis of the tk protein. […] The functional activity of tk was determined by administration of GCV to the cell culture medium. […] To confirm that tk expression was mediated by HCV IRES and not from read-through translation of the hygromycin gene, two control plasmids were generated that were identical to the parental, except for deletion of part of the 5′UTR necessary for IRES function. […]

For a further data set, the system named is untransfected HeLa cells. Kind of data set: GCV application to untransfected HeLa cells or cells expressing Core protein in place of tk. The format is cell-based. The conditions noted are these: GCV 10-100 uM. The procedure: Translation of HSV-tk-mediated by HCV 5′UTR (cap-independent, HCV nucleotides 38-341) was confirmed by Western blotting analysis of the tk protein. The vector was designed such that the authentic HCV Core protein translation start site (AUG at position 342 of the viral RNA) serves as the translation initiation site for the tk gene. The functional activity of tk was determined by administration of GCV to the cell culture medium. […] To confirm that tk expression was mediated by HCV IRES and not from read-through translation of the hygromycin gene, two control plasmids were generated that were identical to the parental, except for deletion of part of the 5′UTR necessary for IRES function. A reporter cell line was generated by electroporation of HeLa cells with pHyg-5′tk and selected with 250 μg/ml hygromycin. Single cell clones of stable HSV-tk expressing cells (HeLa 5′tk cells) were obtained according to standard limited dilution cloning techniques and functionally characterized for GCV-mediated cell killing.

The test system of the next data set is HCV Core protein. Conditions: for core protein expression, reduced to % of control RzBR1 transduced cells: GCV-resistant cells, remaining level relative to control RzBR1. As for the experimental part:
Upon construction of the retroviral vector pLHPM a cassette translating the HCV Core protein via the HCV IRES was placed into the 3′ part of the LTR transcript. Thereby, cells transduced with the library or single Rz candidates could be analyzed for the HCV Core protein expression by Western blotting. Western blotting was performed on protein lysates using an enhanced chemiluminescent blotting detection kit (Novex), and anti-HCV core monoclonal antibody (6C7 provided by Harry Greenberg, Stanford University). Blots were exposed to film and band intensities measured using a phosphoimager and ImageQuant software. […] Band volumes of HCV Core protein in Western blotting were analyzed by densitometry, normalized towards beta-actin and expressed as percentage relative to the control (RzBR1).

Another data set deals with HCV IRES. Kind of data set: Ratio of Core protein to RNA transcript as indicator of HCV IRES translational activity. The format is cell-based, Hepatitis C virus. The conditions noted are these: GCV resistant colonies, compared with control Rz BR1. An excerpt: However, to eliminate differences in expression of the retroviral transcript (harboring the 5′ UTR Core transcript) between different Rz vector transduced cells, we used the ratio between expressed Core protein and RNA transcript levels as an indicator of HCV IRES translational activity.

For data set [2], the system named is LTR-Core and HSV-tk transcripts. In words: Northern blotting of LTR-Core, HSV-tk and GAPDH transcripts. The format is cell-based. Conditions: normalized to GAPDH, relative to control Rz transduced 5′tk cells. The procedure: To assure that the observed reductions in Core protein were not caused by reduced levels of RNA transcript, Northern blotting analysis was performed on […] extracted from stable Rz expressors after GCV selection. Total RNA (15 μg per lane) extracted from cultures at 80% confluency was separated by formaldehyde/1% agarose gel electrophoresis and transferred to nylon membrane. The RNAs were probed for different parts of the two vector derived transcripts expressed in these cells: probes were directed against the tk part of the bicistronic transcript or against the Core portion of the retroviral vector transcript respectively. −^32P dCTP labelled probes were hybridized to the membrane in Quickhyb solution (Stratagene) at 65° C. After washing in 2×SSC/0.1%SDS and exposure to film, quantitation of signal was achieved by phosphimager analysis and computer-assisted denistometry as for the Western procedure. Levels of LTR-Core (4.8 kb) and HSV-tk (2.8 kb) transcripts were normalized to signals derived from GAPDH and expressed as percentage of the signal obtained from control Rz transduced 5′tk cells.

Herpes simplex virus thymidine kinase (HSV-tk), sequence (P0DTH5 whole entry): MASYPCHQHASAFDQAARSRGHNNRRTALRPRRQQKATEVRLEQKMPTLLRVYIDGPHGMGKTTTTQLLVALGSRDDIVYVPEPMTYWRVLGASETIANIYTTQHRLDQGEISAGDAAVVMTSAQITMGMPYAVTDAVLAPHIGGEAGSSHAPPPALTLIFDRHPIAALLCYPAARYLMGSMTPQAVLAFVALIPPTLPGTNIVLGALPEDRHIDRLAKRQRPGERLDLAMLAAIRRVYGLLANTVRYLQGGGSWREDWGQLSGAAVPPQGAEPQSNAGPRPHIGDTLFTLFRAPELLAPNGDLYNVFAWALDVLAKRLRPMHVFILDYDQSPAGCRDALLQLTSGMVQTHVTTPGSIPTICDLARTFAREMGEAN

Turning to `O=c1[nH]c(=O)n([C@@H]2O[C@H](CO)[C@@H](O)[C@@H]2F)cc1I` [FIAU, 1-(2″-deoxy-2′-fluoro-1-β-D-arabinofuranosyl-5-ido)uracil], in data set [1], the “better substrate for HSV-tk compared to mammalian tk” value is reported as “about 1000 fold”.

In the case of `Nc1nc(O)c2ncn(COC(CO)CO)c2n1` [GCV, [9-(1,3-dihydroxy-2-propoxy)methly] guanine], the “cell death on continuous GCV application” value in the data set with HeLa 5′tk cells (continuous GCV 10-100 uM, HSV-tk expressing HeLa cells) is reported as “complete cell death”. Further, the “GCV killing of selected HeLa 5′tk clone” value with HeLa 5′tk cells (exposure to 20 uM GCV) was “completely killed”. The “effect of GCV application on tk-negative cells” value in the data set on untransfected HeLa cells is reported as “remained unaffected”. Further, the “better substrate for HSV-tk compared to mammalian tk” value in data set [1] was “about 1000 fold”.

Consider “HCV4: hairpin ribozyme, SEQ ID NO:50; binding sequence partially matches gamma subunit of human eIF2 (CTAACTTTAGAAACTAACCAGAGAAACACACGTTGTGGTACATTACCTGGTA; chemistry not given here)”, for which the “core protein expression, reduced to % of control RzBR1 transduced cells” value with HCV Core protein is 42%. In addition, the “reduction of HCV IRES-dependent translatability (ratio Core protein/RNA transcript)” value in the data set on HCV IRES is reported as 76%.

Regarding “HCV6: hairpin ribozyme, SEQ ID NO:52; targets human eIF2Bγ mRNA (TTCTTATTAGAAAGCTACCAGAGAAACACACGTTGTGGTACATTACCTGGTA; chemistry not given here)”, in the data set on HCV Core protein, the “core protein expression, reduced to % of control RzBR1 transduced cells” value is reported as 52%. Besides, the “reduction of HCV IRES-dependent translatability (ratio Core protein/RNA transcript)” value in the data set with HCV IRES is given as 83%.

Regarding “HCV8: hairpin ribozyme conferring GCV resistance, SEQ ID NO:54 (AGCCGAGGAGAATCCCACCAGAGAAACACACGTTGTGGTACATTACCTGGTA; chemistry not given here)”, in the data set on HCV Core protein (GCV resistant colonies, normalized to beta-actin, relative to control RzBR1), the “decrease (reduction) in Core protein compared to control Rz transduced cells” value was found to be 95%. In data set [2], the “reduction of Core transcript” value is given as 20%.
